Results as given in patent US9994594B2, “Inhibitors of arginase and their therapeutic applications” (MARS, INCORPORATED, priority 2010, dated 2018).
Where a name gives a salt, the structure may show the parent alone. Blank lines part the entries; values can stand above or below the molecule they belong to.

Legend:
MDSC = settings: tumor bearing mice; cited from earlier work
bacterial arginase = settings: H. pylori; cited from earlier work
[1] = spontaneously hypertensive animals; cited from earlier work
[2] = system: experimental autoimmune encephalomyelitis (EAE); settings: compared with control animals; cited from earlier work
penile erectile response = assay: Erectile dysfunction efficacy model: penile erectile response in vivo
Description: As described hereinabove, the compounds according to the invention are useful in the treatment and prevention of a variety of disorders and conditions that are affected by levels of nitric oxide (NO) regulated, in part, by arginase enzymes. The compounds are assessed for efficacy in such treatment and prevention by their performances in standardized in vivo tests. In vivo models to assess efficacy are developed for this purpose as described below.
The inventive compounds are candidate therapeutics for treating ED, as assessed by measurements of penile erectile response according to a protocol described by Wingard C, Fulton J, and Husain S, J Sex Med 4: 348-363, 2007.

central airways = settings: murine chronic model; cited from earlier work
human arginase I (ARG I) = molecular target: T1, human arginase I (ARG I) (Homo sapiens, UniProt P05089); assay: Inhibition of arginase I, spectrophotometric urea assay at 530 nm; assay type: biochemical; settings: Formula I compounds, Table 2; read-out: Potency (ARG I)
T1 sequence (P05089 1-322): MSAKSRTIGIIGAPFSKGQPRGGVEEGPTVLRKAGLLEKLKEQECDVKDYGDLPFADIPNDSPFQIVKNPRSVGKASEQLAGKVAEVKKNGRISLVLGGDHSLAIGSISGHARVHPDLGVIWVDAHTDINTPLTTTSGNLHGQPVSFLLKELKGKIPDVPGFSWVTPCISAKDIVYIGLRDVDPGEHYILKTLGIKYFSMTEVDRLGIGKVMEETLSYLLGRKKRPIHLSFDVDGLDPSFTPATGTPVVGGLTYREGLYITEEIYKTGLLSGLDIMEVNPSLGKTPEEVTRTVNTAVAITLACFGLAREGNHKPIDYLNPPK
Procedure, shortened: (§1)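 IC50 was derived by regression of OD530 normalized to uninhibited-enzyme controls against log concentration. Urea from 60-min, 37 °C turnover of L-arginine with manganese sulfate was detected after acid o-phthaldialdehyde/primaquine quench and 10 min colour development. Arginase I and II came from 100 ng/ml stocks in pH 7.4 phosphate with ovalbumin.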

arginase II (ARG II) = molecular target: T2, arginase II (ARG II) (Homo sapiens, UniProt P78540); assay: Inhibition of arginase II, spectrophotometric urea assay at 530 nm; assay type: biochemical; settings: Formula I compounds, Table 2; read-out: Potency (ARG II)
T2 sequence (P78540 23-354): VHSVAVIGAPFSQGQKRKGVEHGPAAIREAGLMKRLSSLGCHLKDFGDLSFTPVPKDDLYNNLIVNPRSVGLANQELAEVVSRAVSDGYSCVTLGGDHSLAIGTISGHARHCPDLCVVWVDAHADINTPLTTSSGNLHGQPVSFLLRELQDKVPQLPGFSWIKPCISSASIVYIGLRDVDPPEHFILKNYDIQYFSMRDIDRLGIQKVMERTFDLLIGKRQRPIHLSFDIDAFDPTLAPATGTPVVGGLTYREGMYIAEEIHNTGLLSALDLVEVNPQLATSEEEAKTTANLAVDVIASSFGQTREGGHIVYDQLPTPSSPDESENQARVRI
Procedure, shortened: as §1

SMILES: O=c1[nH]cc(F)c(=O)[nH]1 [5-Fluorouracil]
- MDSC immunesuppression (MDSC): eliminates MDSC immunesuppression
- tumor growth (MDSC): delayed tumor growth

SMILES: NC(=NCCC[C@H](N)C(=O)O)NO [NOHA]
- CD3 expression on T-cells (bacterial arginase): reestablished CD3 expression on T-cells
- production of NO by macrophages (bacterial arginase): enhanced production of NO by macrophages

SMILES: N=C(NO)NCC[C@H](N)C(=O)O [nor-NOHA, N^ω-hydroxy-nor-L-arginine]
- blood pressure [1]: lowered blood pressure
- vascular response of resistance vessels to blood flow and pressure [1]: improved the vascular response of resistance vessels to blood flow and pressure

SMILES: NC(CCCCB(O)O)C(=O)O (centres unmarked) [ABH, amino-6-boronohexanoic acid]
- severity of EAE [2]: much milder form of EAE than in control animals

SMILES: N[C@@](CCCCB(O)O)(CCN1CCCCC1)C(=O)O [Enantiomer of Ex. 13]
- Effect: increased erectile response relative to baseline (penile erectile response; @ 2.5 V stimulation): 0 (0 <10%)
- eliciting erectile responses in vivo (penile erectile response; in words): is not

SMILES: Nc1ccn([C@@H]2O[C@H](CO)[C@@H](O)C2(F)F)c(=O)n1 [gemcitabine]
- MDSC immunesuppression (MDSC): eliminates MDSC immunesuppression
- tumor growth (MDSC): delayed tumor growth

SMILES: N[C@@H](CSCCB(O)O)C(=O)O [S-(2-boronoethyl)-L-cysteine]
- methacholine induced responsiveness of the central airways (central airways): attenuated

- IC50 (human arginase I (ARG I)): 2 to 5 µM
- IC50 (arginase II (ARG II)): 2 to 5 µM
SMILES: CCCNCC(N)(CCCCB(O)O)C(=O)O (centres unmarked) [compound 83, 2-amino-6-borono-2-((propylamino)methyl)hexanoic acid dihydrochloride]
